Where a name gives a salt, the structure may show the parent alone.
Biological target: acetylcholinesterase (AChE), human recombinant (Homo sapiens, UniProt P22303)
Sequence (P22303 32-614): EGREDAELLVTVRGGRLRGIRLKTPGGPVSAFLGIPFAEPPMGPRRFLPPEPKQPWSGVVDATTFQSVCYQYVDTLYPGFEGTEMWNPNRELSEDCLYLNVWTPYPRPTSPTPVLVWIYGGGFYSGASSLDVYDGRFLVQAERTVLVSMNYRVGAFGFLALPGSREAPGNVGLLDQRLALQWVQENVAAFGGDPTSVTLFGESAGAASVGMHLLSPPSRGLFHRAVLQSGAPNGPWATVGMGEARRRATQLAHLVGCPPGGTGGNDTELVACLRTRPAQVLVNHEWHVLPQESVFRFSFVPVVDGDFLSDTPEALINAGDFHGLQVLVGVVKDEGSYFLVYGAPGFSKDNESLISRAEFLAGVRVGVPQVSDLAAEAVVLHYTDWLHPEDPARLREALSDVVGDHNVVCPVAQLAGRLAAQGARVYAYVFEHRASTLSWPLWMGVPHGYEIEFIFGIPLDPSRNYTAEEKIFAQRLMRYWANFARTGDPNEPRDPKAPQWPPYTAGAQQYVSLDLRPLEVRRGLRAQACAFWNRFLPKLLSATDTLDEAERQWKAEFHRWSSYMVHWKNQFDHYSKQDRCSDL
Assay: biochemical
Type: biochemical
Settings: not given
With `COc1ccc2c3c1OC1CC(O)C=CC31CCN(CCCCN1C(=O)c3ccccc3S1(=O)=O)C2` (centres unmarked) [SPH-1369] the IC50 was 0.022 µM.

Same assay, conditions: human recombinant enzyme (hr); pre-incubation of the enzyme with inhibitor (mE); read-out: IC50 (AChE, mE, hr)
For `COc1ccc2c3c1OC1CC(O)C=CC31CC[N+](C)(CC1CC1)C2` (single isomer, unassigned; (-)) [SPH-1146, (−) Cyclopropylmethylgalanthaminium bromide], the IC50 was 1.2 µM. `CCOC(=O)CCN1CCC23C=C[C@H](O)CC2Oc2c(OC)cc(Br)c(c23)C1` (stereo partly drawn) [SPH-1162, 3-((6R)-1-Bromo-6-hydroxy-3-methoxy-5,6,9,10-tetrahydro-4aH-[1]benzofuro[3a,3,2-ef][2]benzazepin-11(12H)-yl)propanoic acid ethyl ester] gave an IC50 of 200 µM. Compound `COc1cc(N(C)C)c2c3c1O[C@H]1CC(O)C=CC31CCN(C)C2` (some centres unmarked) [SPH-1163] has an IC50 of 200 µM. With `C=CCN1CCC23C=CC(O)CC2Oc2c(OC)cc(C)c(c23)C1` (centres unmarked) [SPH-1199] the IC50 was 200 µM. `COc1cc(C)c2c3c1OC1CC(O)C=CC31CCN(C)C2` (centres unmarked) [SPH-1200] gave an IC50 of 200 µM. Work on `COc1cc(C)c2c3c1OC1C[C@@H](O)C=CC31CCN(CCN1CCOCC1)C2` (some centres unmarked) [SPH-1202] yielded an IC50 of 200 µM. `COc1cc(C)c2c3c1OC1CC(O)C=CC31CCN(C)C2` (centres unmarked) [SPH-1204] showed an IC50 of 200 µM. `COc1cc(Br)c2c3c1OC1C[C@@H](O)C=CC31CCN(C(=O)NC(C)C)C2` (stereo partly drawn) [SPH-1208, (6R)-1-Bromo-6-hydroxy-N^11-isopropyl-3-methoxy-5,6,9,10-tetrahydro-4aH-[1]benzofuro[3a,3,2-ef][2]benzazepine-11(12H)-carboxylic acid amide] showed an IC50 of 200 µM. Work on `COc1ccc2c3c1OC1C[C@@H](O)C=CC31CCN(c1nc(Oc3ccccc3)nc(Oc3ccccc3)n1)C2` (stereo partly drawn) [SPH-1228, (6R)-11-(4,6-Diphenoxy-1,3,5-triazine-2-yl)-3-methoxy-5,6,9,10,11,12-hexahydro-4aH-[1]benzofuro[3a,3,2-ef][2]benzazepin-6-ol] yielded an IC50 of 200 µM. `COc1ccc2c3c1OC1C[C@@H](O)C=CC31CCN(c1nc(OCCN)nc(OCCN)n1)C2` (stereo partly drawn) [SPH-1233, (6R)-11-(4,6-Bis-(2aminoethoxy)-1,3,5-triazine-2-yl)-3-methoxy-5,6,9,10,11,12-hexahydro-4aH-[1]benzofuro[3a,3,2-ef][2]benzazepin-6-ol] gave an IC50 of 200 µM. For `COc1ccc2c3c1OC1CC(O)C=CC31CN(C)CC2` (centres unmarked) [SPH-1263, (4aα,8aα)-4a,5,9,10,11-Hexahydro-3-methoxy-10-methyl-6H-benzofuro[3a,3,2-ef]-[3]benzazepin-6-ol], the IC50 was 200 µM. For `COc1ccc2c3c1OC1C[C@@H](O)C=CC31CCN(C(=O)Nc1ccccc1C(F)(F)F)C2` (some centres unmarked) [SPH-1266], the IC50 was 30 µM. `COc1ccc2c3c1OC1CC(O)C=CC31CCN(CCC(=O)O)C2` (centres unmarked) [SPH-1276] gave an IC50 of 42 µM. `COC(=O)C(=CN1CCC23C=CC(O)CC2Oc2c(OC)ccc(c23)C1)C(=O)OC` (centres unmarked) [SPH-1278] showed an IC50 of 100 µM. Compound `COc1cc(C)c2c3c1OC1CC(O)C=CC31CCN(CCCN1CCCCC1)C2` (centres unmarked) [SPH-1298] has an IC50 of 200 µM. For `COc1ccc2c3c1OC1CC(O)C=CC31CCCC2N` (centres unmarked) [SPH-1309], the IC50 was 200 µM. Compound `COc1ccc2c3c1OC1CC(O)C=CC31CCN(CCN)C2` (centres unmarked) [SPH-1311] has an IC50 of 1.3 µM. `C=CCCC(=O)N1CCC23C=CC(O)CC2Oc2c(OC)ccc(c23)C1` (centres unmarked) [SPH-1326] gave an IC50 of 8.4 µM. `COC(=O)C1=CON2CCC34C=CC(O)CC3Oc3c(OC)ccc(c34)C12` (centres unmarked) [SPH-1332] gave an IC50 of 200 µM.

Same assay, conditions: last section of the table, own sub-head (r307); read-out: IC50 AChE
`C=C(C)C[N+]1(C)CC[C@@]23C=C[C@H](O)C[C@@H]2Oc2c(OC)ccc(c23)C1` (some centres unmarked) [SPH-1193] showed an IC50 of 1.5 µM.

Same assay, conditions: read-out: IC50 (AChE, mE, hr); human recombinant enzyme (hr); pre-incubation of the enzyme with inhibitor (mE)
Compound `COc1cc(Br)c2c3c1OC1C[C@@H](O)C=CC31CCN(CCC#N)C2` (stereo in doubt) [SPH-1210, 3-((6R)-1-Bromo-6-hydroxy-3-methoxy-5,6,9,10-tetrahydro-4aH-[I]benzofuro[3a,3,2-ef][2]benzazepine-11(12H)-yl)propanenitrile] has an IC50 of 200 µM.

Test system: not given
Assay: not given
Settings: not given
Compound `COc1ccc2c3c1O[C@H]1C[C@@H](O)C=C[C@@]31CCN(C)C2=O` has a melting point of 251 to 255 °C. With `COc1ccc2c3c1O[C@H]1C[C@@H](O)C=C[C@@]31CCN1OC(OC(C)=O)C[C@@H]21` (some centres unmarked) the melting point was 132 to 134 °C. Compound `COc1ccc2c3c1O[C@H]1C[C@@H](O)C=C[C@@]31CCN1OC=C(C#N)[C@H]21` has a melting point of 137 to 139 °C. Compound `COc1ccc2c3c1O[C@H]1C[C@@H](O)C=C[C@@]31CCN(CCCCCN1C(=O)c3cccc4cccc(c34)C1=O)C2` (as salt: fumarate) has a melting point of 129 to 134 °C.
